The record followed here is patent US9669034B2, “4-aryl-N-phenyl-1,3,5-triazin-2-amines containing a sulfoximine group” (BAYER INTELLECTUAL PROPERTY GMBH, priority 2011, dated 2017).

For data set [1], the system named is Caco-2 human colorectal carcinoma. Put plainly: Proliferation assay (crystal violet), Caco-2. It counts as cell-based. The following applies: Homo sapiens, Caco-2, Caco-2 cells, Method 3; read-out: Inhibition of Caco-2 cell proliferation, IC50. A digest of the protocol:
(§1)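 4-day compound exposure ([…]; DMSO 0.5%) starting 24 h post-plating. Densities: NCI-H460 and HeLa 3000, HeLa-MaTu-ADR 5000, Caco-2 1500 cells/well; 10% FCS. Glutaraldehyde fix, crystal violet stain, A595.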

Data set [2] relates to DU145, hormone-independent human prostate carcinoma cells. Put plainly: Proliferation assay (crystal violet), DU145. It counts as cell-based. The following applies: Homo sapiens, DU-145, DU145 cells, Method 3; read-out: Inhibition of DU145 cell proliferation, IC50. A digest of the protocol: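 Proliferation of DU145 cells was measured with crystal violet. Cells were fixed with 20 μL 11% glutaric aldehyde for 15 minutes, washed, dried, stained with 100 μL 0.1% crystal violet (pH 3.0), washed again, and the dye was dissolved in 10% acetic acid. Absorbance at 595 nm was normalized to the zero-point plate and untreated cells, and IC50 came from a 4 parameter fit.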

For data set [3], the system named is HeLa human cervical tumour cells. Put plainly: Proliferation assay (crystal violet), HeLa. The following applies: Method 3, read-out: Inhibition of HeLa cell proliferation, IC50. It counts as cell-based. A digest of the protocol:
as §1

For data set [4], the system named is B16F10 mouse melanoma cells. As to the kind of experiment: Proliferation assay (crystal violet), B16F10. The following applies: Mus musculus, B16-F10, B16F10 cells, Method 3; read-out: Inhibition of B16F10 cell proliferation, IC50. It counts as cell-based. A digest of the protocol: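 Proliferation was read out by crystal violet staining. Cells were fixed for 15 minutes at room temperature with 20 μL of 11% glutaric aldehyde, washed three times with water, dried, and stained with 100 μL of 0.1% crystal violet (pH 3.0). After washing and drying, the dye was dissolved in 100 μL of 10% acetic acid and absorbance measured at 595 nm. Values were normalized to the zero-point plate (0%) and untreated cells (100%), and IC50 was obtained by a 4 parameter fit.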

The test system of data set [5] is HeLa-MaTu-ADR, multidrug-resistant human cervical carcinoma cells. As to the kind of experiment: Proliferation assay (crystal violet), HeLa-MaTu-ADR. In kind it is cell-based. The following applies: Homo sapiens, HeLa, Method 3, read-out: Inhibition of HeLa/MaTu/ADR cell proliferation, IC50. A digest of the protocol:
as §1

Data set [6] in a line: Equilibrium shake flask solubility assay. It counts as physicochemical. The following applies: pH 6.5, equilibrium shake flask method; for solubility thermodynamic at 24 h: phosphate buffer, pH 6.5, aqueous buffer, thermodynamic from solid, water. As for the experimental part: 4. Equilibrium Shake Flask Solubility Assay:
The thermodynamic solubility of compounds in water was determined by an equilibrium shake flask method (see for example: E. H. Kerns, L. Di: Drug-like Properties: Concepts, Structure Design and Methods, 276-286, Burlington, Mass., Academic Press, 2008). A saturated solution of the drug was prepared and the solution was mixed for 24 h to ensure that equilibrium was reached. The solution was centrifuged to remove the insoluble fraction and the concentration of the compound in solution was determined using a standard calibration curve.
To prepare the sample, 2 mg solid compound was weighed in a 4 mL glass vial. 1 mL phosphate buffer pH 6.5 was added. The suspension was stirred for 24 hrs at room temperature. The solution was centrifuged afterwards. To prepare the sample for the standard calibration, 2 mg solid sample was dissolved in 30 mL acetonitrile. After sonification the solution was diluted with water to 50 mL. Sample and standards were quantified by HPLC with UV-detection. For each sample two injection volumes (5 and 50 μl) in triplicates were made. Three injection volumes (5 μl, 10 μl and 20 μl) were made for the standard.
Chromatographic Conditions:
The areas of sample- and standard injections as well as the calculation of the solubility value (in mg/l) were determined by using HPLC software (Waters Empower 2 FR).

For a further data set, the target named is CDK9/CycT1 (Homo sapiens (Human), UniProt P50750). As to the kind of experiment: CDK9/CycT1 kinase assay (TR-FRET). In kind it is biochemical. The conditions noted are these: Method 1. A digest of the protocol:
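TR-FRET read-out of kinase inhibition, with a biotin-Ttds-tagged peptide as substrate. Enzyme: human CDK9 and CycT1, full-length with His tags, produced in insect cells and purified on Ni-NTA.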
A general note: Time-resolved FRET reads energy transfer from a long-lived donor to a nearby acceptor.

The target in another data set is CDK2/CycE (Homo sapiens (Human), UniProt P24941). Put plainly: CDK2/CycE kinase assay (TR-FRET). It counts as biochemical. The conditions noted are these: Method 2. Summed up:
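TR-FRET measurement of inhibition of phosphorylation of a biotinylated peptide substrate. Enzyme complex consisted of human CDK2 and CycE, each as a GST fusion made in Sf9 cells and purified over glutathione-Sepharose.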

The test system of data set [7] is NCI-H460, human non-small cell lung carcinoma cells. Put plainly: Proliferation assay (crystal violet), NCI-H460. In kind it is cell-based. The following applies: Homo sapiens, NCI-H460, NCI-H460 cells, Method 3; read-out: Inhibition of NCI-H460 cell proliferation, IC50. A digest of the protocol: as §1
For data set [8], the target named is human carbonic anhydrase-2 (Homo sapiens (Human), UniProt P00918). Put plainly: Carbonic anhydrase assay, carbonic anhydrase-2. It counts as biochemical. The conditions noted are these: read-out: Inhibition of Carbonic anhydrase-2: IC50. An excerpt:
(§2) 5. Carbonic Anhydrase Assay
(§3) The principle of the assay is based on the hydrolysis of 4-nitrophenyl acetate by carbonic anhydrases (Pocker & Stone, Biochemistry, 1967, 6, 668), with subsequent photometric determination of the dye product 4-nitrophenolate at 400 nm by means of a 96-channel spectral photometer.
(§4) 2 microL of the test compounds, dissolved in DMSO (100-fold final concentration), in a concentration range of 0.03-10 micromol/L (final), was pipetted as quadruplicates into the wells of a 96-hole microtiter plate. Wells that contained the solvent without test compounds were used as reference values (1. Wells without carbonic anhydrase for correction of the non-enzymatic hydrolysis of the substrate, and 2. Wells with carbonic anhydrase for determining the activity of the non-inhibited enzyme).
(§5) 188 microL of assay buffer (10 millimol/L of Tris/HCl, pH 7.4, 80 millimol/L of NaCl), with or without 3 units/well of carbonic anhydrase-1 [=human carbonic anhydrase-1 (Sigma, #C4396)] in order to determine carbonic anhydrase-1 inhibition or 3 units/well of carbonic anhydrase-2 [=human carbonic anhydrase-2 (Sigma, #C6165)] for measuring carbonic anhydrase-2 inhibition, was pipetted into the wells of the microtiter plate. […] IC50 values were determined by means of a 4 parameter fit.

The target of data set [9] is human carbonic anhydrase-1 (Homo sapiens (Human), UniProt P00915). As to the kind of experiment: Carbonic anhydrase assay, carbonic anhydrase-1. In kind it is biochemical. The following applies: read-out: Inhibition of Carbonic anhydrase-1: IC50.
Chain of human carbonic anhydrase-1 (P00915 whole entry): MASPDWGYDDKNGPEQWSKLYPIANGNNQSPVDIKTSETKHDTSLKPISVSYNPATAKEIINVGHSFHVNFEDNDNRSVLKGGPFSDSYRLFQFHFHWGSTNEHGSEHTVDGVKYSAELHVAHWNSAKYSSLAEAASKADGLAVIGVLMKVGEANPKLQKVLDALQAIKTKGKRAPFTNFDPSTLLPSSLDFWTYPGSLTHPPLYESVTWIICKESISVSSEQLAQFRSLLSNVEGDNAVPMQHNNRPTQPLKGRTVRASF
Source text: as §2, §3, §4, §5

The thermodynamic solubility is the concentration in solution at equilibrium with solid.

Molecules are shown by their SMILES. In brackets after ≈: the same amount, converted by molar mass. Like-named read-outs stand apart in the source and are kept apart here. A value given as a limit tells only on which side of the number the result lay.

Chain of CDK9/CycT1 (P50750 whole entry): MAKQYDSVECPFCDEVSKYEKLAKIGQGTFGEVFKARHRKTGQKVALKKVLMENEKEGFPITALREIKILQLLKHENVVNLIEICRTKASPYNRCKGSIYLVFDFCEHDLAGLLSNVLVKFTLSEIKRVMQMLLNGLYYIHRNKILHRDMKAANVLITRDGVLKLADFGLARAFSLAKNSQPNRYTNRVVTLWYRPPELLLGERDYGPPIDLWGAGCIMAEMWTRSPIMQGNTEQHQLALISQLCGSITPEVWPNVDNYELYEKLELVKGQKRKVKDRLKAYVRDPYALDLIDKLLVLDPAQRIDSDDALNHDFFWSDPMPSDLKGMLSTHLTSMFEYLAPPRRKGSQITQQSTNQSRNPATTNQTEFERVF
Chain of CDK9/CycT1 (O60563 whole entry partner): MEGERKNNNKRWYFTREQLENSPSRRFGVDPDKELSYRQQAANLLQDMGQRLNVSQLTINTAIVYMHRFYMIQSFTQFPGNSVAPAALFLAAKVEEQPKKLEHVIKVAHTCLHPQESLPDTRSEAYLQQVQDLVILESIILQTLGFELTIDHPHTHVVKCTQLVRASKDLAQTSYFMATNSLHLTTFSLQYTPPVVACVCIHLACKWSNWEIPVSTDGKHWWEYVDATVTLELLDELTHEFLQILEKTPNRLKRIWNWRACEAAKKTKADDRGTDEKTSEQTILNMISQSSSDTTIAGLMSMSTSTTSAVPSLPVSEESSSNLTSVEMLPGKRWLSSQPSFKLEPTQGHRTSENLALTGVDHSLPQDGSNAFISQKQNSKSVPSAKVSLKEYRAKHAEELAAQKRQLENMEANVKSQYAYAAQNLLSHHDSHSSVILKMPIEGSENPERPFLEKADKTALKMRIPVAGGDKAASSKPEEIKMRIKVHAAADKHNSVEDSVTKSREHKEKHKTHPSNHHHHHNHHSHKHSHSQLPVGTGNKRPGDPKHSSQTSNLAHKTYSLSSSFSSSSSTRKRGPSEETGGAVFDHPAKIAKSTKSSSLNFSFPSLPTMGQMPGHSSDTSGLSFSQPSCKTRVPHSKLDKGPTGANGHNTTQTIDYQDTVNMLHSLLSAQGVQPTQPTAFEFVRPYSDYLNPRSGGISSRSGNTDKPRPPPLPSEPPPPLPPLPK

Turning to `CC#CCOc1cc(F)ccc1-c1ncnc(Nc2cccc(CS(C)(=N)=O)c2)n1` (racemic) [Example 73, (rac)-4-[2-(But-2-yn-1-yloxy)-4-fluorophenyl]-N-{3-[(S-methylsulfonimidoyl)methyl]phenyl}-1,3,5-triazin-2-amine], the IC50 in data set [1] came to 300 nM; in [2], 200 nM; in data set [3] (Homo sapiens, HeLa), 240 nM; in [4], 150 nM; in data set [5], 280 nM; against CDK9/CycT1, 8 nM. Also, the results for the IC50 (on CDK2/CycE; in data set [7]) were 820 nM and 260 nM, respectively. The thermodynamic solubility at 24 h in [6] is 1220 µg/mL (≈ 2870 µM).

For the compound `C#CCOc1cc(F)ccc1-c1ncnc(Nc2cccc(CS(C)(=N)=O)c2)n1` (racemic) [Example 77, (rac)-4-[4-Fluoro-2-(prop-2-yn-1-yloxy)phenyl]-N-{3-[(S-methylsulfonimidoyl)methyl]phenyl}-1,3,5-triazin-2-amine], the IC50 in data set [1] was determined as 300 nM; in data set [2], 480 nM; in data set [3] (Homo sapiens, HeLa), 470 nM; in data set [4], 520 nM; in data set [5] it was 630 nM; at CDK9/CycT1, 15 nM. Also, the results for the IC50 (against CDK2/CycE; in data set [7]) were 1600 nM and 560 nM, respectively. In addition, the solubility (thermodynamic) at 24 h in [6] was found to be 256 µg/mL (≈ 622 µM).

As to `CCOc1cc(F)ccc1-c1ncnc(Nc2cccc(CS(C)(=N)=O)c2)n1` (racemic) [Example 88, (rac)-4-(2-Ethoxy-4-fluorophenyl)-N-{3-[(S-methylsulfonimidoyl)methyl]phenyl}-1,3,5-triazin-2-amine], the IC50 in data set [1] worked out at 780 nM; in [2], 730 nM; in data set [3] (Homo sapiens, HeLa), 380 nM; in data set [4] it was 810 nM; in data set [5], 700 nM; at CDK9/CycT1, 11 nM. Moreover, the IC50 against CDK2/CycE came to 1300 nM; in [7] it was 890 nM. The thermodynamic solubility at 24 h in data set [6] was 884 µg/mL (≈ 2200 µM).

With `COc1cc(F)ccc1-c1ncnc(Nc2cccc(CS(C)(=O)=NC#N)c2)n1` (single isomer, unassigned) [Example 50, [(3-{[4-(4-fluoro-2-methoxyphenyl)-1,3,5-triazin-2-yl]amino}benzyl)(methyl)oxido-λ^6-sulfanylidene]cyanamide], the IC50 in [1] is 350 nM; in [2] it was 140 nM; in data set [3] (Homo sapiens, HeLa), 260 nM; in data set [4] it was 250 nM; in data set [5], 190 nM; against CDK9/CycT1, 7 nM. Besides, the IC50 at CDK2/CycE came to 430 nM; in data set [7] it was 310 nM. For the same compound, in [6], the “Thermodynamic solubility in water at pH 6.5” value is 126 mg/l.

Regarding `COc1cc(F)ccc1-c1ncnc(Nc2cccc(CS(C)(=N)=O)c2)n1` (single isomer, unassigned; (+)) [Example 4, (+)-4-(4-Fluoro-2-methoxyphenyl)-N-{3-[(S-methylsulfonimidoyl)methyl]phenyl}-1,3,5-triazin-2-amine], the IC50 in data set [8] and in data set [9] was above 10000 nM throughout.

On to `CNC(=O)N=S(C)(=O)Cc1cccc(Nc2ncnc(-c3ccc(F)cc3OC)n2)c1` (single isomer, unassigned; (+)) [Example 17, (+)-1-[(3-{[4-(4-Fluoro-2-methoxyphenyl)-1,3,5-triazin-2-yl]amino}benzyl)(methyl)oxido-λ^6-sulfanylidene]-3-methylurea], for which the IC50 is 800 nM in [1]; 580 nM in data set [2]; 580 nM in [3]; 410 nM in [4]; 600 nM in [5]; 14 nM against CDK9/CycT1. Further, the values for the IC50 (on CDK2/CycE; in [7]) were 1200 nM and 540 nM, respectively. For the same compound, in data set [6], the “Thermodynamic solubility in water at pH 6.5” value stood at 429 mg/l.

Regarding `COc1cc(F)ccc1-c1ncnc(Nc2cccc(CS(C)(=N)=O)c2)n1` (single isomer, unassigned; (-)) [Example 3, (−)-4-(4-Fluoro-2-methoxyphenyl)-N-{3-[(S-methylsulfonimidoyl)methyl]phenyl}-1,3,5-triazin-2-amine], the IC50 in [8] and in [9] was above 10000 nM in each case. This compound also registered a thermodynamic solubility at 24 h in data set [6] of 601 µg/mL (≈ 1550 µM).
